Source: patent EP0942741B1, “LECTIN COMPOSITIONS AND USES THEREOF” (Alizyme Therapeutics Limited, priority 1996, dated 1997)

Experiments:
[1] = Protection of rats from 5-FU chemotherapy by oral PHA (Example 7); format: in vivo
Protocol: (§1) 300mg of 5-fluorouracil was stirred in 14ml of distilled water. 1M NaOH was added slowly until the 5-FU had dissolved. The solution was made up to a final volume of 20 ml. The final pH of the solution was 8.3. A dose of 150 mg/kg body weight was administered to the animal by intraperitoneal injection. Immediately after the injection, the rats were offered 15 g of the control diet and food was available ad-libitum for the remainder of the experiment.
Four groups, each consisting of 5 rats were maintained on a precise dietary regime for a period of 7 days (Table 11).
Rats (approx […]) pre-dosed with PHA were offered 10 g of the control diet (Table 1) containing 10% lactalbumin. Each animal was given the equivalent of 20 mg PHA in 0.9% saline by gavage. Rats were offered control diet in two feeds at 1000 & 1700 hours. The amount of food given was strictly paired to the amount of diet eaten by the PHA pre-dosed animals. If the animals were immediately post-dosed with PHA, the lectin was administered two hours post 5-FU injection by gavage. Animals neither pre- or post dosed with PHA were administered with 1 ml 0.9% saline by gavage. After 3 days, animals in three of the groups were administered a dose of 150 mg/kg body weight 5-FU. Body weight of each animal was recorded daily and the average body weight calculated.
At the end of the experiment, the animals were sacrificed and then dissected. The dry weights of the major organs were recorded for each animal and the average weights calcurated.
After 7 days, blood was collected from the animals and both the key molecular and cellular components were analysed.

[2] = Dose range of PHA pre-dosing against 5-FU damage of the gastrointestinal tract (Example 8); format: in vivo, rats; conditions: pair fed, 150 mg/kg/BW 5-FU, day 9
Protocol: as §1
3 groups of rats (5 rats per group) were fed on the standard diet (Table 1) and gavaged daily with either 200, 100 & 50 mg/kg/day PHA for 3 days. The food intake for each rat was recorded daily. A second set of 3 control groups of rats (5 rats per group) were fed on the standard diet and gavaged daily with 1 ml saline for 3 days. Each animal of the control group was pair fed to an animal in the PHA dosed groups. On the morning of the 4th day, each animal was injected with 150 mg/kg bodyweight 5-FU and then fed the standard diet for 6 days. 2 rats were fed on the standard diet ad libitum for 9 days. On the 9th day, the rats were killed and the animals dissected. After freezing in liquid nitrogen, the wet tissue weights were recorded.

[3] = Treatment 2: LA 3d, inject 5-FU (150 mg/kg i.p.), LA 4d, after 7 days
[4] = Treatment 2: LA 3d, inject 5-FU (150 mg/kg i.p.), LA 4d, blood after 7 days
[5] = Paired control 50 mg/kg/day: saline gavage
[6] = Paired control 100 mg/kg/day: saline gavage
[7] = Paired control 200 mg/kg/day: saline gavage

For `O=c1[nH]cc(F)c(=O)[nH]1` [5-FU, 5-fluorouracil], the “Caecum average dry weight” value [1, 3] was 99 ± 11 mg, the “Colon average dry weight” value [1, 3] was 130 ± 11 mg and the “Ileum average dry weight” value [1, 3] was 94 ± 11 mg. For the same molecule, the “Jejunum average dry weight” value [1, 3] was 90 ± 8 mg, the “Small intestine average dry weight” value [1, 3] was 509 ± 55 mg and the “Stomach average dry weight” value [1, 3] was 140 ± 7 mg. For the same molecule, the HGB [1, 4] was 12.7 g/100ml, the MCH [1, 4] was 17.3 pg and the MCHC [1, 4] was 34.3 g/100ml. For the same molecule, the MCV [1, 4] was 50.4 µm^3, the PLT [1, 4] was 274x10^3 no/mm^3 and the WBC [1, 4] was 3x10^3 no/mm^3. The fresh body weight ([1]; Treatment 2: LA 3d, inject 5-FU (150 mg/kg i.p.), LA 4d, column 1 of 8 (day not given)) was 102.5 g, the fresh body weight ([1]; Treatment 2: LA 3d, inject 5-FU (150 mg/kg i.p.), LA 4d, column 2 of 8 (day not given)) was 99.9 g and the fresh body weight ([1]; Treatment 2: LA 3d, inject 5-FU (150 mg/kg i.p.), LA 4d, column 3 of 8 (day not given)) was 98.8 g. The fresh body weight ([1]; Treatment 2: LA 3d, inject 5-FU (150 mg/kg i.p.), LA 4d, column 4 of 8 (day not given)) was 101.9 g, the fresh body weight ([1]; Treatment 2: LA 3d, inject 5-FU (150 mg/kg i.p.), LA 4d, column 5 of 8 (day not given)) was 108 g and the fresh body weight ([1]; Treatment 2: LA 3d, inject 5-FU (150 mg/kg i.p.), LA 4d, column 6 of 8 (day not given)) was 110.2 g. It also gave a fresh body weight ([1]; Treatment 2: LA 3d, inject 5-FU (150 mg/kg i.p.), LA 4d, column 7 of 8 (day not given)) of 107.9 g, a fresh body weight ([1]; Treatment 2: LA 3d, inject 5-FU (150 mg/kg i.p.), LA 4d, column 8 of 8 (day not given)) of 106.2 g and a daily food intake ([1]; Treatment 2: LA 3d, inject 5-FU (150 mg/kg i.p.), LA 4d, day 1 (pair fed, before injection)) of 4.8 g. It also gave a daily food intake ([1]; Treatment 2: LA 3d, inject 5-FU (150 mg/kg i.p.), LA 4d, day 2 (pair fed, before injection)) of 6.22 g, a daily food intake ([1]; Treatment 2: LA 3d, inject 5-FU (150 mg/kg i.p.), LA 4d, day 3 (pair fed, before injection)) of 9.22 g and a daily food intake ([1]; Treatment 2: LA 3d, inject 5-FU (150 mg/kg i.p.), LA 4d, day 4) of 11.3 g. For the same molecule, the daily food intake ([1]; Treatment 2: LA 3d, inject 5-FU (150 mg/kg i.p.), LA 4d, day 5) was 10.4 g, the daily food intake ([1]; Treatment 2: LA 3d, inject 5-FU (150 mg/kg i.p.), LA 4d, day 6) was 6.8 g and the daily food intake ([1]; Treatment 2: LA 3d, inject 5-FU (150 mg/kg i.p.), LA 4d, day 7) was 5.9 g. For the same molecule, the “reduction of small intestine dry weight” value ([1]; only lactalbumin in the diet, 5-FU 150 mg/kg) was about 50%, the Heum wet weight [2, 5] was 722 mg and the Jejunum wet weight [2, 5] was 761 mg. It also gave a Heum wet weight [2, 6] of 747 mg, a Jejunum wet weight [2, 6] of 783 mg and a Heum wet weight [2, 7] of 753 mg. The Jejunum wet weight [2, 7] was 848 mg.
